Source: patent US8906432B2, “Compositions comprising an NFκB-inhibitor and a non-retinoid collagen promoter” (Johnson & Johnson Consumer Companies, Inc., priority 2009, dated 2014)

Legend:
Collagen 1A promoter = assay: COLLAGEN PROMOTER ASSAY (Collagen 1A promoter-luciferase reporter in H9C2 cells); assay type: cell-based, rat; settings: 1 ug/ml of each active (on active basis), transfected H9C2 cells, 24 hours; for Percent Change Over Vehicle (collagen promotion): vehicle DMSO 0.01%
Procedure: Suitable non-retinoid collagen promoters may be determined, for example, using the COLLAGEN PROMOTER ASSAY. The COLLAGEN PROMOTER ASSAY is performed as follows. Rat cardiac myoblasts H9C2, which may be purchased from ATCC (Manassas, Va.), are used. Cultures are maintained in Dulbecco's modified Eagle's medium (DMEM, Invitrogen Life Technologies, Carlsbad, Calif.) supplemented with 10% fetal bovine serum, 2 mM glutamine, 100 units/ml penicillin, and 50 ug/ml streptomycin (Invitrogen life technologies, Carlsbad, Calif.). Cell cultures are transiently transfected with the Collagen 1A promoter-luciferase reporter construct, driving the firefly luciferase gene, which may obtained for example from PREMAS Biotech Pvt. Ltd (Haryana, India). In all transfections, a construct with the thymidine kinase promoter and the Renilla luciferase reporter gene (pRL-TK, Promega, Madison, Wis.) is included as an internal control. Cells grown in 48-well plates are transfected with 0.45 ug total DNA per well using Lipofectamine 2000 (Invitrogen life technologies, Carlsbad, Calif.). One day after transfection, cells are treated with agents at the indicated concentrations for approximately 24 hours before they are lysed for luciferase assays, using Dual-Luciferase Reporter System from Promega (Madison, Wis.), following manufacturer's protocol. The firefly luciferase activity is measured first (representing collagen promoter activity), followed by the renilla luciferase (internal control), using luminometer LMAX, from Molecular Devices (Sunnyvale, Calif.). The ratio of these two luciferase activities (RLU) is used to evaluate the activity of each promoter.
The COLLAGEN PROMOTER ASSAY was performed on the following compounds: Tanacetum parthenium (parthenolide-free feverfew extract from Integrated Botanical Technologies of Ossining, N.Y.) and 4-hexylresorcinol (Synovea HR, from Sytheon Ltd). The compounds were diluted in cell culture media (DMEM Media of Invitrogen, San Diego Calif.) to the concentration of “active” extract as indicated in Table 3 below. […]

NFκB = assay: NFκB-INHIBITION TEST (NF-kB gene reporter, TNFα-stimulated FB293 cells, luciferase); assay type: cell-based; settings: Homo sapiens, 24 h; series of substituted resorcinols, each 10 ug/ml (Table 2); read-out: Percent NF-kB Inhibition
Procedure: The NFκB-INHIBITION TEST is conducted in the following manner. FB293 cells, a stable transfected human epithelial cell line containing the gene reporter for NF-kB are used. They may be obtained from, e.g., Panomics (Fremont, Calif.). FB293 are plated at a density of 5×10^4 cells/mL in a suitable medium, e.g., Dulbecco's modified Eagle's medium (DMEM) supplemented with 10% fetal bovine serum (Invitrogen, San Diego, Calif.). The FB293 cells are stimulated with 100 ng/mL of Tumor Necrosis Factor-α(TNFα, available from Sigma-Aldrich of St Louis, Mo.) in the presence of the test sample. Separately, a control sample is tested wherein no test sample is applied. Following a 24-hour incubation at 37° C. with 5% CO2, cells are lysed with 40 μl of reporter lysis buffer (Promega, Madison, Wis.). A […] aliquot of the lysate is assayed using a luciferase assay kit (Promega) and counted for 10 s in a Lmax luminometer (Molecular Devices, Sunnyvale, Calif.) with the data represented as the relative light unit/second. Percent NFκB Inhibition of the test sample is calculated as: NFκB Inhibition=[1−(Lsample/Lcontrol)]*100 where Lsample is the luminescence of the sample and Lcontrol is the luminescence of the control. […]

Row | SMILES | Percent Change Over Vehicle (collagen promotion) (Collagen 1A promoter) | Percent Change Over Vehicle (collagen promotion) (Collagen 1A promoter; listed as 4-hexylresorcinol) | Collagen 1A Promoter Activity (Collagen 1A promoter; vehicle control = 1.00) | inhibition at 10 µg/mL (NFκB)
1 | CCCCCCc1ccc(O)cc1O [4-Hexylresorcinol] | −3% | −3% | 0.97 ± 0.17 | 
2 | CCCCCCCCCCCC1c2cc(c(O)cc2O)C(CCCCCCCCCCC)c2cc(c(O)cc2O)[C@H](CCCCCCCCCCC)c2cc(c(O)cc2O)[C@H](CCCCCCCCCCC)c2cc1c(O)cc2O (stereo partly shown) [C-Undecylcalix[4]-resorcinarene] |  |  |  | 4.87%
